Publication PMC11864979, “First-in-class ultralong-target-residence-time p38α inhibitors as a mitosis-targeted therapy for colorectal cancer” (Nature Cancer, 2025)
Where two headings read alike, the source gives them in different places.

Columns and labels:
Experiment in all cases: selectivity profiling in a panel of 340 wild-type kinases (Reaction Biology Europe)
Assay type in all cases: binding
340 wild-type kinases [1] = biological target: T1, 340 wild-type kinases (Homo sapiens, UniProt P51812)
T1 construct: purchased Reaction Biology Europe

340 wild-type kinases [2] = biological target: T2, 340 wild-type kinases (Homo sapiens, UniProt P52333)
T2 construct: purchased Reaction Biology Europe
T2 sequence (P52333 1-1124): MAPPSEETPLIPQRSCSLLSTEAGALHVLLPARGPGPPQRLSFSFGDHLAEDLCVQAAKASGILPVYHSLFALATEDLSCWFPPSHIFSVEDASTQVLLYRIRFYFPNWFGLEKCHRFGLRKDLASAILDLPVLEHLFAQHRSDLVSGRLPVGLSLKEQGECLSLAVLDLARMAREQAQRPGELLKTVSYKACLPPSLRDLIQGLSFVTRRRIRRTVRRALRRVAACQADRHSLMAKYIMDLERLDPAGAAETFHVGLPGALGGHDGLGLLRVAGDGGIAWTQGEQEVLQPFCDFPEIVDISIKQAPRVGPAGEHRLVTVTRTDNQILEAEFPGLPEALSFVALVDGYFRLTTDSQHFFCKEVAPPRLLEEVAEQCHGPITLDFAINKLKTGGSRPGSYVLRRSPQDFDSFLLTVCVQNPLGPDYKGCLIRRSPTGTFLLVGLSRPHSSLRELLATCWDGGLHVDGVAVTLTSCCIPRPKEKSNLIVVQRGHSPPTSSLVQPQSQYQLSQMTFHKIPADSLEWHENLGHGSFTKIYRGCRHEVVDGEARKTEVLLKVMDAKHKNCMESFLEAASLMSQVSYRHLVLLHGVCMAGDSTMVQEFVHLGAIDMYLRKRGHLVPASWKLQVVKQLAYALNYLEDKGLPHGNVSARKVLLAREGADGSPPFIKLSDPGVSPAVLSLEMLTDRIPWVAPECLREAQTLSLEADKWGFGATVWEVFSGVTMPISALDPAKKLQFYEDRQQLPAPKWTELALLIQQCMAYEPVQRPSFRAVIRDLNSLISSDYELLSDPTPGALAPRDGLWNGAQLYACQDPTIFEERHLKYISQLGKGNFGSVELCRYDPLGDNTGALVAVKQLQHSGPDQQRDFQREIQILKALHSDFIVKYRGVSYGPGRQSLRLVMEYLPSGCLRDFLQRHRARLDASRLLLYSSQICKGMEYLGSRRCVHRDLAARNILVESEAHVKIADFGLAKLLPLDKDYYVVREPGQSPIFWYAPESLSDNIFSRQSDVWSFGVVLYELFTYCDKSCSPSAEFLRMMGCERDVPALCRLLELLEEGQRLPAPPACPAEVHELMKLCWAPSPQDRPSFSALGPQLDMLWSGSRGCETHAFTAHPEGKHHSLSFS

340 wild-type kinases [3] = biological target: T3, 340 wild-type kinases (Homo sapiens, UniProt Q8WTQ7)
T3 construct: purchased Reaction Biology Europe
T3 sequence (Q8WTQ7 1-553): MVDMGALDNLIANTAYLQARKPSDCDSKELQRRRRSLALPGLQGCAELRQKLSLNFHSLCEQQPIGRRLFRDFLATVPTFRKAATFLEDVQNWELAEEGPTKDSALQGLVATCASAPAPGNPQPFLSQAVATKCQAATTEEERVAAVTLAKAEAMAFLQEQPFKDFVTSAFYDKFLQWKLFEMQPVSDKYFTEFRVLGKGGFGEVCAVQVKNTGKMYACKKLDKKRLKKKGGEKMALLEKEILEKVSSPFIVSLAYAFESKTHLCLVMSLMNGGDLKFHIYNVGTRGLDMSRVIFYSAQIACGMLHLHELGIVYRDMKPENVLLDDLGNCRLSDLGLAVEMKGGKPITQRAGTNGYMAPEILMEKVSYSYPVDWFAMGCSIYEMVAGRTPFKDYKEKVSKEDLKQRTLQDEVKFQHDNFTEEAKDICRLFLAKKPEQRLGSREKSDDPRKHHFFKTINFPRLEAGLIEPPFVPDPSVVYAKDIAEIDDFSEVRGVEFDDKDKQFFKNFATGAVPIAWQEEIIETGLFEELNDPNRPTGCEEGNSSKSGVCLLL

340 wild-type kinases [4] = biological target: T4, 340 wild-type kinases (Homo sapiens, UniProt O75716)
T4 construct: purchased Reaction Biology Europe

340 wild-type kinases [5] = biological target: T5, 340 wild-type kinases (Homo sapiens, UniProt P78527)
T5 construct: purchased Reaction Biology Europe

340 wild-type kinases [6] = biological target: T6, 340 wild-type kinases (Homo sapiens, UniProt P35968)
T6 construct: purchased Reaction Biology Europe

340 wild-type kinases [7] = biological target: T7, 340 wild-type kinases (Homo sapiens, UniProt Q9UPE1)
T7 construct: purchased Reaction Biology Europe

T5 sequence (P78527 whole entry): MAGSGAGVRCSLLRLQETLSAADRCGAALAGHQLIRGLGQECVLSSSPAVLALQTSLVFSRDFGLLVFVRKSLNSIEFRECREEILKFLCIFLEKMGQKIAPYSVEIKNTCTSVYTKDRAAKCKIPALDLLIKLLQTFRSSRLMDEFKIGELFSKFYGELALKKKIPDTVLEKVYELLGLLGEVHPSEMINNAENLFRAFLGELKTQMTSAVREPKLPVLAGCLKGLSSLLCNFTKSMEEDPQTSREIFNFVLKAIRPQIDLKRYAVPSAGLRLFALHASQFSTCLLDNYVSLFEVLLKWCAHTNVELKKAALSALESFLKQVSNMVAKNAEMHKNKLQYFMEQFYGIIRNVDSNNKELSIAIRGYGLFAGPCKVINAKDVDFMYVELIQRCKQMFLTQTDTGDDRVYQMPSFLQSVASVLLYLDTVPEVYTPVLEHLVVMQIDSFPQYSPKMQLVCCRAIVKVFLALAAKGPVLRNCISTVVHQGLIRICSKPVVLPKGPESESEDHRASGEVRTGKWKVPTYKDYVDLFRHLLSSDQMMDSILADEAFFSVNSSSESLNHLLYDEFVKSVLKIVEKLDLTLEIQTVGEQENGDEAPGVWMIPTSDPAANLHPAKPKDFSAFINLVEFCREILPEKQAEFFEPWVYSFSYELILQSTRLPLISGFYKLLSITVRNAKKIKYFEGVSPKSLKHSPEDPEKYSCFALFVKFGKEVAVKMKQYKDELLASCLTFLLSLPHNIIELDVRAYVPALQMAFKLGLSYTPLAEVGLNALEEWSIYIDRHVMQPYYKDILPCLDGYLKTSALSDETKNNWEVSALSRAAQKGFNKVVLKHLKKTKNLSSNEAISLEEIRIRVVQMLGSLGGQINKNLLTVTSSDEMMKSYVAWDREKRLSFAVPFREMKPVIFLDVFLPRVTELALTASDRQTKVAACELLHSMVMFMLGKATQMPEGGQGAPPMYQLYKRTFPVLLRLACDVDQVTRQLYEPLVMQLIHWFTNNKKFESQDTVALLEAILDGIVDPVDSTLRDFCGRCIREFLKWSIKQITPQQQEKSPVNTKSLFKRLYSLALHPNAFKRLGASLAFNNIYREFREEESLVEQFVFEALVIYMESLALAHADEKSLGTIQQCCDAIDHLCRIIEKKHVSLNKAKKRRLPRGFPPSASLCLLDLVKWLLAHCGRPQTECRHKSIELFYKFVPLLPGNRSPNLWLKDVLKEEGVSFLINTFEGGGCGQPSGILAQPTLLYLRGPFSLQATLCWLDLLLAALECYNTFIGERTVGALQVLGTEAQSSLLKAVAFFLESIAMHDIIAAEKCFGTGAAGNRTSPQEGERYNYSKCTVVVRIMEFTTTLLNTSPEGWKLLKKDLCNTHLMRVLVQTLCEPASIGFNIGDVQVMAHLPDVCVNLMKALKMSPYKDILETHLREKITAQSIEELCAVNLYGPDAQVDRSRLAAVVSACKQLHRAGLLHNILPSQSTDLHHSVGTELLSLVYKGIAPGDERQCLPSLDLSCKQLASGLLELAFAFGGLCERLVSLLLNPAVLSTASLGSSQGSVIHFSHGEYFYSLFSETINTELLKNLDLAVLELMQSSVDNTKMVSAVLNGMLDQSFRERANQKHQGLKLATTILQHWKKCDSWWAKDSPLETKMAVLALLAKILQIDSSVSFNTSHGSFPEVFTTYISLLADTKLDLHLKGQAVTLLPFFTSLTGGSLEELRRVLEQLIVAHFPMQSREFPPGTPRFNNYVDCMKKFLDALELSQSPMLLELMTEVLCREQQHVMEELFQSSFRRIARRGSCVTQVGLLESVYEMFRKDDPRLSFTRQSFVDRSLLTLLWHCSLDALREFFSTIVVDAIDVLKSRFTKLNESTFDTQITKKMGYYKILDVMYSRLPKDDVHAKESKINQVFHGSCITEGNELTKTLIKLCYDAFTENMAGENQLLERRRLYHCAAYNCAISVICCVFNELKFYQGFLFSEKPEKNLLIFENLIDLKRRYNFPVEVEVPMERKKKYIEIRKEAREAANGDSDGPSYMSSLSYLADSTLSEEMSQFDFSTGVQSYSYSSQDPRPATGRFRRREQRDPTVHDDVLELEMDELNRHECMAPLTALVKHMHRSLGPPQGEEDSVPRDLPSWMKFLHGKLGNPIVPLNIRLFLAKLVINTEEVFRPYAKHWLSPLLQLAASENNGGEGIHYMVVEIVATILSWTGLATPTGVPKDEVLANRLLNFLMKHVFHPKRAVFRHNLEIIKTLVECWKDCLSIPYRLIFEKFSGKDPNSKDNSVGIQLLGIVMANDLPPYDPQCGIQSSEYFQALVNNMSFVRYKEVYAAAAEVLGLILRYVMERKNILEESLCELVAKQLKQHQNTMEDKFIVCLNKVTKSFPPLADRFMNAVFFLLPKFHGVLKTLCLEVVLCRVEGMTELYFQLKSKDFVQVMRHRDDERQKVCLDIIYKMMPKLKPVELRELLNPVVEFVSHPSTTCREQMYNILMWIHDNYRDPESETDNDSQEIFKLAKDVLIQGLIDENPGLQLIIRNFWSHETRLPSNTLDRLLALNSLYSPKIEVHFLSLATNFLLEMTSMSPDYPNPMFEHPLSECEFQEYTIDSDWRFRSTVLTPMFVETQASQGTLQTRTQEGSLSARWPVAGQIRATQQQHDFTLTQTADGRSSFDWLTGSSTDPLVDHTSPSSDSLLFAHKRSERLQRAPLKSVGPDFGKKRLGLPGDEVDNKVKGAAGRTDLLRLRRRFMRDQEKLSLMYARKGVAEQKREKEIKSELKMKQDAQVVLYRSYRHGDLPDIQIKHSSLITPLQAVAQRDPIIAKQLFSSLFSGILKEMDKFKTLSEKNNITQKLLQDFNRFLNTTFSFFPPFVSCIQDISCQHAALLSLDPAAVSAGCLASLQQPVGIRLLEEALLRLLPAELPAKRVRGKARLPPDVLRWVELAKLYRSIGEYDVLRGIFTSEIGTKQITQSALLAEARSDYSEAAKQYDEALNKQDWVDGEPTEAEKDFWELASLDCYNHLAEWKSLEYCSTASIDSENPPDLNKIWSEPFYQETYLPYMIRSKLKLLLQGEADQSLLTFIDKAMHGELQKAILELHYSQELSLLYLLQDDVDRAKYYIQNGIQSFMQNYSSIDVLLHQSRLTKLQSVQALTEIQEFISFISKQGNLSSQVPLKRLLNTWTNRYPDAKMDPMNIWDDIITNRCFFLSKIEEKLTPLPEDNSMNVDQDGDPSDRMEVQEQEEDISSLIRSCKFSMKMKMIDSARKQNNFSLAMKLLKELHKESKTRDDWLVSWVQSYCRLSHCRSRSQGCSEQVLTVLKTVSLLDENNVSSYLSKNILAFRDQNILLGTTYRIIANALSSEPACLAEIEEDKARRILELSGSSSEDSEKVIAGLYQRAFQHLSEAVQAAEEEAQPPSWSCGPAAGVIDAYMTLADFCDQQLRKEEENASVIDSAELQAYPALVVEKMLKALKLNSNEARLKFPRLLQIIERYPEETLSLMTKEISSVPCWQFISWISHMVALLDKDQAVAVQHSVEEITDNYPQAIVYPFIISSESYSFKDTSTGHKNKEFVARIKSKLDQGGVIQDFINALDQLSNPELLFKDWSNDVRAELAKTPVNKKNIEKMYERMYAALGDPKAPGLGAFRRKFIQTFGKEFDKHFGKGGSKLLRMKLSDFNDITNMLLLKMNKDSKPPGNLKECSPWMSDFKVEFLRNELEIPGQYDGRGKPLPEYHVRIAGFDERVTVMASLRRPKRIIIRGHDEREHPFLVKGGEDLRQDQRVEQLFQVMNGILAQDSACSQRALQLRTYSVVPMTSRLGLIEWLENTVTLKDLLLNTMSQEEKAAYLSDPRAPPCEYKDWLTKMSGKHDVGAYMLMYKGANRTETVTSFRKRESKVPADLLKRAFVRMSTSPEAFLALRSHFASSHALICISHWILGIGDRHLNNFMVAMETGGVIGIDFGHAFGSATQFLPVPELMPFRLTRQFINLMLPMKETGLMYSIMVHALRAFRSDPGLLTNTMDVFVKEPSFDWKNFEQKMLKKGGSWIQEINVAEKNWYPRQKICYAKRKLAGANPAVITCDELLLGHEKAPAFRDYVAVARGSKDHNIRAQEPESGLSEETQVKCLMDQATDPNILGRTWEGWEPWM
T1 sequence (P51812 whole entry): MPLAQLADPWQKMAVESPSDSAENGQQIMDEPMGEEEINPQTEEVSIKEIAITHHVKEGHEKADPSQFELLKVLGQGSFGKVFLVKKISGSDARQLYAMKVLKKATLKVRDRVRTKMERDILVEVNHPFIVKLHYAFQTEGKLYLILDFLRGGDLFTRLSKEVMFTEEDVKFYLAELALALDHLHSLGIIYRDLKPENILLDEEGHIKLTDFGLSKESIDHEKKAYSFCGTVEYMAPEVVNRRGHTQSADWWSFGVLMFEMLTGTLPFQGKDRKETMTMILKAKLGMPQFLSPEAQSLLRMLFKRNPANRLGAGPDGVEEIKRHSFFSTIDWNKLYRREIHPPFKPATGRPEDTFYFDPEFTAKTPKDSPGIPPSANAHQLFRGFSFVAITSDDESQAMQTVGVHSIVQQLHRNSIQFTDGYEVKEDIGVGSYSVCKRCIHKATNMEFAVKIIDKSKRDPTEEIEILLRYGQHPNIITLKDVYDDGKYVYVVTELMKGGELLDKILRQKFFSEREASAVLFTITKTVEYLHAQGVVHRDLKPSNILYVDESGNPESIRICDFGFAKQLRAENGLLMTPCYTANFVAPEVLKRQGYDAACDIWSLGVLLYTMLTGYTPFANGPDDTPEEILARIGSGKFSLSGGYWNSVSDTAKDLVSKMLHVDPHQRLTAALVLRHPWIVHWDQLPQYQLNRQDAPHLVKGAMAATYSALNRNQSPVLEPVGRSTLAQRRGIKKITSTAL
T4 sequence (O75716 whole entry): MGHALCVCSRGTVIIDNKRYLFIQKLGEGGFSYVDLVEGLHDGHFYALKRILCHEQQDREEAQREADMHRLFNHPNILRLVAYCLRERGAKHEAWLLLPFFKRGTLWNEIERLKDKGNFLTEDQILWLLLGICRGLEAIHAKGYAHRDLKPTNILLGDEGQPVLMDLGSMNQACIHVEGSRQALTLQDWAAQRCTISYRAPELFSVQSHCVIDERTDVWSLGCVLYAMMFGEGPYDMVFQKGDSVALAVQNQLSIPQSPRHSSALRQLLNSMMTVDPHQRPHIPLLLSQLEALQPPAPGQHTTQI

CNC(=O)c1ccc2c(c1)C(=O)c1ccc(Nc3ccc(F)c(NC(=O)C4CC4)c3)cc1CC2 [Compound 2015]
remaining activity at 0.2 µM (340 wild-type kinases [1]; 0.2 µM 2015, read-out: RPS6KA3 residual activity): 107% | remaining activity at 1 µM (340 wild-type kinases [1]; 1 µM 2015, read-out: RPS6KA3 residual activity): 103% | remaining activity at 0.2 µM (340 wild-type kinases [1]; RPS6KA3, 0.2 µM, read-out: residual activity): 107% | remaining activity at 1 µM (340 wild-type kinases [1]; RPS6KA3, 1 µM, read-out: residual activity): 103% | remaining activity at 0.2 µM (340 wild-type kinases [2]; 0.2 µM 2015, read-out: JAK3 residual activity): 105% | remaining activity at 1 µM (340 wild-type kinases [2]; 1 µM 2015, read-out: JAK3 residual activity): 110% | remaining activity at 0.2 µM (340 wild-type kinases [2]; JAK3, 0.2 µM, read-out: residual activity): 105% | remaining activity at 1 µM (340 wild-type kinases [2]; JAK3, 1 µM, read-out: residual activity): 110% | remaining activity at 0.2 µM (340 wild-type kinases [3]; 0.2 µM 2015, read-out: GRK7 residual activity): 123% | remaining activity at 1 µM (340 wild-type kinases [3]; 1 µM 2015, read-out: GRK7 residual activity): 106% | remaining activity at 0.2 µM (340 wild-type kinases [3]; GRK7, 0.2 µM, read-out: residual activity): 123% | remaining activity at 1 µM (340 wild-type kinases [3]; GRK7, 1 µM, read-out: residual activity): 106% | remaining activity at 0.2 µM (340 wild-type kinases [4]; 0.2 µM 2015, read-out: TSF1 residual activity): 95.7% | remaining activity at 1 µM (340 wild-type kinases [4]; 1 µM 2015, read-out: TSF1 residual activity): 85.7% | remaining activity at 0.2 µM (340 wild-type kinases [4]; TSF1, 0.2 µM, read-out: residual activity): 95.7% | remaining activity at 1 µM (340 wild-type kinases [4]; TSF1, 1 µM, read-out: residual activity): 85.7% | remaining activity at 0.2 µM (340 wild-type kinases [5]; 0.2 µM 2015, read-out: DNAPK residual activity): 111% | remaining activity at 1 µM (340 wild-type kinases [5]; 1 µM 2015, read-out: DNAPK residual activity): 99.6% | remaining activity at 0.2 µM (340 wild-type kinases [5]; DNAPK, 0.2 µM, read-out: residual activity): 111% | remaining activity at 1 µM (340 wild-type kinases [5]; DNAPK, 1 µM, read-out: residual activity): 99.6% | remaining activity at 0.2 µM (340 wild-type kinases [6]; 0.2 µM 2015, read-out: VEGFR2 residual activity): 86.7% | remaining activity at 1 µM (340 wild-type kinases [6]; 1 µM 2015, read-out: VEGFR2 residual activity): 96.7% | remaining activity at 0.2 µM (340 wild-type kinases [6]; VEGFR2, 0.2 µM, read-out: residual activity): 86.7% | remaining activity at 1 µM (340 wild-type kinases [6]; VEGFR2, 1 µM, read-out: residual activity): 96.7% | remaining activity at 0.2 µM (340 wild-type kinases [7]; 0.2 µM 2015, read-out: STK23 residual activity): 90.7% | remaining activity at 1 µM (340 wild-type kinases [7]; 1 µM 2015, read-out: STK23 residual activity): 94.1% | remaining activity at 0.2 µM (340 wild-type kinases [7]; STK23, 0.2 µM, read-out: residual activity): 90.7%
